# Data: PubChem BioAssay AID248 (DTP/NCI, 2004)
# Several values for one entry are separate records, joined by “and”; a condition that tells them apart may be missing. Equal entries are not always repeated. Inconclusive results and toxic doses are left out.
# Test system: L1210 leukemia ip in BDF1 mice, survival T/C
# Test: NCI In Vivo Anticancer Drug Screen. Data for tumor model L1210 Leukemia (intraperitoneal) in B6D2F1 (BDF1) mice
# Settings: endpoint: mean survival time, higher = longer survival
# Summary of the method: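 Antitumor effect is assessed in tumor-bearing animals. Survival in the compound arm is compared with a vehicle-dosed control arm and expressed as their quotient.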
# [1] = dose: 50.0 mg/kg/injection, schedule: Q01DX009 (ip), vehicle: saline
# [2] = dose: 100.0 mg/kg/injection, schedule: Q01DX009 (ip), vehicle: saline
# [3] = dose: 100.0 mg/kg/injection, schedule: Q01DX001 (ip), vehicle: other
# [4] = dose: 200.0 mg/kg/injection, schedule: Q01DX001 (ip), vehicle: other
# [5] = dose: 400.0 mg/kg/injection, schedule: Q01DX001 (ip), vehicle: other
# [6] = dose: 100.0 mg/kg/injection, schedule: Q04DX003 (ip), vehicle: Klucel (hydroxypropylcellulose) (HPC)
# [7] = dose: 200.0 mg/kg/injection, schedule: Q04DX003 (ip), vehicle: Klucel (hydroxypropylcellulose) (HPC)
# [8] = dose: 400.0 mg/kg/injection, schedule: Q04DX003 (ip), vehicle: Klucel (hydroxypropylcellulose) (HPC)
# [9] = dose: 100.0 mg/kg/injection, schedule: Q04DX003 (ip), vehicle: saline with Tween-80
# [10] = dose: 200.0 mg/kg/injection, schedule: Q04DX003 (ip), vehicle: saline with Tween-80
# [11] = dose: 400.0 mg/kg/injection, schedule: Q04DX003 (ip), vehicle: saline with Tween-80
# [12] = dose: 100.0 mg/kg/injection, schedule: Q01DX001 (ip), vehicle: saline
# [13] = dose: 200.0 mg/kg/injection, schedule: Q01DX001 (ip), vehicle: saline
# [14] = dose: 400.0 mg/kg/injection, schedule: Q01DX001 (ip), vehicle: saline
# [15] = dose: 100.0 mg/kg/injection, schedule: Q04DX003 (ip), vehicle: saline
# [16] = dose: 400.0 mg/kg/injection, schedule: Q04DX003 (ip), vehicle: saline
compound,measurement,setting,value
Cc1nc(C(=O)O)cs1,T/C,[1],95 % of control
same,T/C,"dose: 50.0 mg/kg/injection, schedule: Q04DX003 (ip), vehicle: acetone",90 % of control
same,T/C,"dose: 100.0 mg/kg/injection, schedule: Q01DX001 (ip), vehicle: acetone",98 % of control
same,T/C,[2],92 % of control
same,T/C,"dose: 100.0 mg/kg/injection, schedule: Q04DX003 (ip), vehicle: acetone",92 % of control
same,T/C,"dose: 200.0 mg/kg/injection, schedule: Q01DX001 (ip), vehicle: acetone",102 % of control
same,T/C,"dose: 200.0 mg/kg/injection, schedule: Q04DX003 (ip), vehicle: acetone",95 % of control
Cc1ccc(/C(=N\N=C(N)N)C2CC2)c(C)c1,T/C,"dose: 15.0 mg/kg/injection, schedule: Q01DX Z (ip), vehicle: methylcellulose (MC)",89 % of control
same,T/C,"dose: 30.0 mg/kg/injection, schedule: Q01DX Z (ip), vehicle: methylcellulose (MC)",98 % of control
same,T/C,"dose: 30.0 mg/kg/injection, schedule: Q01DX Z (oral), vehicle: methylcellulose (MC)",103 % of control
same,T/C,"dose: 60.0 mg/kg/injection, schedule: Q01DX Z (ip), vehicle: methylcellulose (MC)",95 % of control
same,T/C,"dose: 60.0 mg/kg/injection, schedule: Q01DX Z (oral), vehicle: methylcellulose (MC)",97 % of control
same,T/C,"dose: 240.0 mg/kg/injection, schedule: Q01DX Z (oral), vehicle: methylcellulose (MC)",86 % of control
Nc1cncc2ncc(-c3ccc(Cl)cc3)nc12,T/C,"dose: 50.0 mg/kg/injection, schedule: Q01DX001 (ip), vehicle: other",105 % of control
same,T/C,[3],100 % of control
same,T/C,[4],94 % of control
same,T/C,[5],96 % of control
c1ccc(-c2nc3cnccc3o2)cc1,T/C,"dose: 12.5 mg/kg/injection, schedule: Q01DX009 (ip), vehicle: Klucel (hydroxypropylcellulose) (HPC)",92 % of control
same,T/C,"dose: 25.0 mg/kg/injection, schedule: Q01DX009 (ip), vehicle: Klucel (hydroxypropylcellulose) (HPC)",94 % of control
same,T/C,"dose: 50.0 mg/kg/injection, schedule: Q01DX009 (ip), vehicle: Klucel (hydroxypropylcellulose) (HPC)",94 % of control
same,T/C,[6],106 % of control
same,T/C,[7],99 % of control
same,T/C,[8],94 % of control
OC1(Cc2ccccc2)CCCCC1,T/C,[3],102 % of control
same,T/C,[9],102 % of control
same,T/C,[4],110 % of control
same,T/C,[10],104 % of control
same,T/C,[5],118 % of control
same,T/C,[11],102 % of control
c1ccc(-c2nc(-c3ccccn3)nc(-c3ccccn3)n2)nc1,T/C,"dose: 5.0 mg/kg/injection, schedule: Q01DX001 (ip), vehicle: saline",107 % of control
same,T/C,"dose: 10.0 mg/kg/injection, schedule: Q01DX001 (ip), vehicle: saline",96 % of control
same,T/C,"dose: 20.0 mg/kg/injection, schedule: Q01DX001 (ip), vehicle: saline",100 % of control
same,T/C,"dose: 40.0 mg/kg/injection, schedule: Q01DX001 (ip), vehicle: saline",93 % of control
same,T/C,"dose: 80.0 mg/kg/injection, schedule: Q01DX001 (ip), vehicle: saline",91 % of control
Cc1ccc2[nH]c(=O)cc(C)c2c1,T/C,"dose: 100.0 mg/kg/injection, schedule: Q01DX001 (ip), vehicle: carboxymethylcellulose (CMC)",102 % of control
same,T/C,[9],95 % of control
same,T/C,[10],98 % of control
same,T/C,[11],101 % of control
O=Cc1ccc[nH]1,T/C,"dose: 100.0 mg/kg/injection, schedule: Q04DX003 (ip), vehicle: other",93 % of control
same,T/C,"dose: 200.0 mg/kg/injection, schedule: Q04DX003 (ip), vehicle: other",96 % of control
same,T/C,"dose: 400.0 mg/kg/injection, schedule: Q04DX003 (ip), vehicle: other",110 % of control
O=C(NCCN1CC1)C(=O)NCCN1CC1,T/C,"dose: 1.7 mg/kg/injection, schedule: Q04DX003 (ip), vehicle: Klucel (hydroxypropylcellulose) (HPC)",173 % of control
same,T/C,"dose: 2.6 mg/kg/injection, schedule: Q04DX003 (ip), vehicle: Klucel (hydroxypropylcellulose) (HPC)",153 % of control and 186 % of control
same,T/C,"dose: 3.12 mg/kg/injection, schedule: Q04DX003 (ip), vehicle: Klucel (hydroxypropylcellulose) (HPC)",187 % of control
same,T/C,"dose: 3.12 mg/kg/injection, schedule: Q04DX003 (ip), vehicle: saline with Tween-80",179 % of control
same,T/C,"dose: 4.0 mg/kg/injection, schedule: Q04DX003 (ip), vehicle: Klucel (hydroxypropylcellulose) (HPC)",207 % of control
same,T/C,"dose: 6.0 mg/kg/injection, schedule: Q04DX003 (ip), vehicle: Klucel (hydroxypropylcellulose) (HPC)",95 % of control
same,T/C,"dose: 6.25 mg/kg/injection, schedule: Q04DX003 (ip), vehicle: Klucel (hydroxypropylcellulose) (HPC)",258 % of control
same,T/C,"dose: 12.5 mg/kg/injection, schedule: Q04DX003 (ip), vehicle: Klucel (hydroxypropylcellulose) (HPC)",122 % of control
CCN1CCCC(Nc2nc(Nc3cc(Cl)cc(Cl)c3)nc3cc(Cl)ccc23)C1 (stereo unspecified),T/C,"dose: 100.0 mg/kg/injection, schedule: Q04DX003 (ip), vehicle: saline sonified",95 % of control
same,T/C,"dose: 200.0 mg/kg/injection, schedule: Q04DX003 (ip), vehicle: saline sonified",97 % of control
same,T/C,"dose: 400.0 mg/kg/injection, schedule: Q04DX003 (ip), vehicle: saline sonified",106 % of control
O=C(O)CSc1n[nH]c(=O)[nH]c1=O,T/C,[12],117 % of control
same,T/C,[13],97 % of control
same,T/C,[14],113 % of control
O=C1Cc2cccc(=O)c(O)c2C(=O)O1,T/C,"dose: 25.0 mg/kg/injection, schedule: Q01DX009 (ip), vehicle: saline",97 % of control and 90 % of control
same,T/C,[1],97 % of control and 92 % of control
same,T/C,[2],96 % of control and 89 % of control
same,T/C,[15],111 % of control and 100 % of control
same,T/C,"dose: 200.0 mg/kg/injection, schedule: Q04DX003 (ip), vehicle: saline",97 % of control
same,T/C,[16],89 % of control
O=[N+]([O-])c1ccc(Cl)cc1/C=N/N1CCN(/N=C/c2cc(Cl)ccc2[N+](=O)[O-])CC1,T/C,[12],93 % of control
same,T/C,[13],93 % of control
same,T/C,[14],93 % of control
CC1(C)SCC(C(=O)N2CCCC2C(=O)OC2CCCCC2)N1C=O (stereo unspecified),T/C,[15],92 % of control
same,T/C,[16],97 % of control
N=C(N)N=Nc1cc(O)c(NN=C(N)N)cc1O,T/C,"dose: 7.5 mg/kg/injection, schedule: Q01DX Z (oral), vehicle: saline",95 % of control
same,T/C,"dose: 15.0 mg/kg/injection, schedule: Q01DX Z (ip), vehicle: saline",98 % of control
same,T/C,"dose: 15.0 mg/kg/injection, schedule: Q01DX Z (oral), vehicle: saline",96 % of control
same,T/C,"dose: 30.0 mg/kg/injection, schedule: Q01DX Z (oral), vehicle: saline",98 % of control
O=C1OC(=O)C2C(c3ccccc3)=CC(c3ccccc3)=CC12 (stereo unspecified),T/C,[12],98 % of control
same,T/C,[13],107 % of control
same,T/C,[14],102 % of control
Nc1cc(S(=O)(=O)O)cc2ccccc12,T/C,[12],92 % of control
same,T/C,[13],92 % of control
same,T/C,[14],87 % of control
COc1ccccc1NC(=O)Nc1c(C)cccc1C,T/C,"dose: 100.0 mg/kg/injection, schedule: Q01DX009 (ip), vehicle: gum acacia",97 % of control
same,T/C,"dose: 100.0 mg/kg/injection, schedule: Q04DX003 (ip), vehicle: gum acacia",98 % of control
same,T/C,"dose: 200.0 mg/kg/injection, schedule: Q01DX009 (ip), vehicle: gum acacia",88 % of control
same,T/C,"dose: 200.0 mg/kg/injection, schedule: Q04DX003 (ip), vehicle: gum acacia",93 % of control
same,T/C,"dose: 400.0 mg/kg/injection, schedule: Q01DX009 (ip), vehicle: gum acacia",90 % of control
same,T/C,"dose: 400.0 mg/kg/injection, schedule: Q04DX003 (ip), vehicle: gum acacia",94 % of control
Cc1cc(C)c(-n2c(-c3ccc(Cl)cc3)nnc2-c2ccc(Br)cc2)c(C)c1,T/C,[6],101 % of control
same,T/C,[7],90 % of control
same,T/C,[8],95 % of control
COc1cc(CCCC(=O)O)c(OC)c(C)c1C,T/C,"dose: 100.0 mg/kg/injection, schedule: Q01DX001 (ip), vehicle: Klucel (hydroxypropylcellulose) (HPC)",93 % of control
same,T/C,"dose: 100.0 mg/kg/injection, schedule: Q01DX009 (ip), vehicle: Klucel (hydroxypropylcellulose) (HPC)",97 % of control
same,T/C,"dose: 200.0 mg/kg/injection, schedule: Q01DX001 (ip), vehicle: Klucel (hydroxypropylcellulose) (HPC)",98 % of control
same,T/C,"dose: 200.0 mg/kg/injection, schedule: Q01DX009 (ip), vehicle: Klucel (hydroxypropylcellulose) (HPC)",103 % of control
same,T/C,"dose: 400.0 mg/kg/injection, schedule: Q01DX001 (ip), vehicle: Klucel (hydroxypropylcellulose) (HPC)",95 % of control
same,T/C,"dose: 400.0 mg/kg/injection, schedule: Q01DX009 (ip), vehicle: Klucel (hydroxypropylcellulose) (HPC)",101 % of control
